Assay [1] addresses CDK4/cyclin D1 (Homo sapiens (Human), UniProt P11802). Kind of assay: CDK4 Caliper Mobility Shift assay. The format is biochemical. On the procedure:
(§1) A Caliper Mobility Shift assay was used to determine the inhibitory activities of a compound against CDK4/cyclin D1 and CDK6/cyclin D1 in their respective kinase buffers (CDK4: 20 mM HEPES, pH 7.5, and 0.01% Triton X-100; CDK6: 50 mM HEPES, pH 7.5, and 0.0015% BRIJ-35). The CDK4/cyclin D1 and CDK6/cyclin D1 were obtained from PROQINASE and CARNA, respectively. A FAM-labeled peptide was obtained from GL.
(§2) The compound at predetermined concentrations was pre-incubated with CDK4/cyclin D1 or CDK6/cyclin D1 in a 384-well microplate at room temperature for 10 min. The FAM-labeled peptide and ATP were subsequently added to initiate the kinase reactions. The final enzyme concentrations were 15 nM for CDK4 and 7.5 nM for CDK6. The final ATP concentrations were […] for CDK4 and […] for CDK6. The microplate was allowed to incubate at 28° C. The kinase reactions were stopped by adding a stop buffer (100 mM HEPES, pH 7.5, 0.012% BRIJ-35, 0.2% Coating Reagent 3 (Caliper Life Sciences), and […]). Conversion data were recorded and utilized to calculate the percent inhibition values for each compound and an IC50 value was then determined. The results are summarized in Table 1, where the symbol “***” represents a value no greater than 200 nM, the symbol “**” represents a value greater than 200 nM but no greater than 500 nM, and the symbol “*” represents a value greater than 500 nM.

The target of assay [2] is CDK6/cyclin D1 (Homo sapiens (Human), UniProt Q00534). As to the kind of experiment: CDK6 Caliper Mobility Shift assay. It counts as biochemical. As to the method: as §1, §2
CDK6/cyclin D1, sequence (Q00534 whole entry): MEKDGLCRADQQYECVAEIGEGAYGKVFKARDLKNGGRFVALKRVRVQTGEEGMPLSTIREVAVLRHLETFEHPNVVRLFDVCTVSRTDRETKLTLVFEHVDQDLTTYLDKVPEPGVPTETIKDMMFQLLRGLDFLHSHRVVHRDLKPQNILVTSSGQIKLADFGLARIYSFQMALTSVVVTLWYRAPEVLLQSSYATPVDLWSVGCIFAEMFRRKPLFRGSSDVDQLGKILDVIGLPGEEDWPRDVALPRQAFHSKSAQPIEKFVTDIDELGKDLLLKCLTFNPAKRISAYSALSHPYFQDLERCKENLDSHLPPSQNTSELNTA
CDK6/cyclin D1, sequence (P24385 whole entry partner): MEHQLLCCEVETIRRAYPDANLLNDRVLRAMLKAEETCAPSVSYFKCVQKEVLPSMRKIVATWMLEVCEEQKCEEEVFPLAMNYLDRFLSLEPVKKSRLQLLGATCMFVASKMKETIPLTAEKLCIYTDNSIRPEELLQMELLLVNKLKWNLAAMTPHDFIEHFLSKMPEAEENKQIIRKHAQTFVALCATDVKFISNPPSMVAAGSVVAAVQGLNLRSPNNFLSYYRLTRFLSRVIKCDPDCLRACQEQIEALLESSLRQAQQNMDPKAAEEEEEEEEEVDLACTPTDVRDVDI
The test system of assay [3] is MCF-7 human breast cancer cells. Kind of assay: CELLTITER-GLO luminescent cell viability assay. It counts as cell-based. The conditions noted are these: MCF7, 192 h, MCF-7 cells, 8 days, read-out: EC50 (Effect on Cell Viability). On the procedure: A CELLTITER-GLO luminescent cell viability assay was carried out using MCF-7 human breast cancer cells under the normal growth condition. The MCF-7 human breast cancer cells were grown at 37° C. in a 5% CO2 humidified incubator in EMEM, supplemented 10% FBS, 0.01 mg/mL bovine insulin. The cells were seeded at a 3,000 cells/well in a 96-well tissue culture plate. The cells were allowed to adhere overnight in the incubator. A compound (5 μL) in a medium at a predetermined concentration. After the cells was incubated at 37° C. for 8 days, a CELLTITER-GLO detection solution (100 μL) was added. The cells were mixed on an orbital shaker for 5 min and then incubated for additional 10 min. The plate was read with an ENVISION reader. The results are summarized in Table 2, where the symbol “+++” represents a value no greater than 1 μM, the symbol “++” represents a value greater than 1 μM but no greater than 10 μM, and the symbol “+” represents a value greater than 10 μM.
In general terms: Cellular ATP, detected with luciferase, serves as a proxy for viable cell number.

Results on 17 compounds are retold here after patent publication US20250289813A1, “CDK INHIBITORS, PHARMACEUTICAL COMPOSITIONS, AND THERAPEUTIC APPLICATIONS” (ONQUALITY PHARMACEUTICALS CHINA LTD., priority 2022, published 2025).

By IC50 is commonly meant the midpoint of a concentration-inhibition curve. The EC50 is the concentration giving half of the maximal effect.

The structures appear in SMILES notation.

CDK4/cyclin D1, sequence (P11802 whole entry): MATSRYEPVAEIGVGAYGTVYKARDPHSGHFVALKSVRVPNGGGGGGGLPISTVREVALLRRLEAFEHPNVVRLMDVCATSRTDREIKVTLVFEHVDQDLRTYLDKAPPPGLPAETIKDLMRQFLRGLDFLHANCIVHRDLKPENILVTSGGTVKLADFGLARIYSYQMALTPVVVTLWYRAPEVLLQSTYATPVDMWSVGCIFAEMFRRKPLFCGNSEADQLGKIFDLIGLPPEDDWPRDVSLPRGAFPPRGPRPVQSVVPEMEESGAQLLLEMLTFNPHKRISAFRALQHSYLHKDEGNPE
CDK4/cyclin D1, sequence (P24385 whole entry partner): as the sequence (P24385 whole entry partner) above

For the compound `CC(=O)c1c(C)c2cnc(Nc3ccc(N4CCN(S(=O)(=O)N5CCOCC5)CC4)cn3)nc2n(C2CCCC2)c1=O` [Compound A51, 6-Acetyl-8-cyclopentyl-5-methyl-2-((5-(4-(morpholinosulfonyl)piperazin-1-yl)-pyridin-2-yl)amino)pyrido[2,3-d]pyrimidin-7(8H)-one], the IC50 in assay [1] and in assay [2] was not above 0.2 µM throughout. In addition, the concentration for a half-maximal effect (EC50) in assay [3] is 1 to 10 µM.

For `CCCNS(=O)(=O)N1CCN(c2ccc(Nc3ncc4c(C)c(C(C)=O)c(=O)n(C5CCCC5)c4n3)nc2)CC1` [Compound A49, 4-(6-((6-Acetyl-8-cyclopentyl-5-methyl-7-oxo-7,8-dihydropyrido[2,3-d]-pyrimidin-2-yl)amino)pyridin-3-yl)-N-propylpiperazine-1-sulfonamide], the concentration for half-maximal inhibition (IC50) in assay [1] and in assay [2] was 0.2 to 0.5 µM throughout. For the same compound, in assay [3], the EC50 was more than 10 µM.

Regarding `CC(=O)c1c(C)c2cnc(Nc3ccc(N4CCN(S(=O)(=O)NC(=O)OC(C)(C)C)CC4)cn3)nc2n(C2CCCC2)c1=O` [Compound A4, tert-butyl ((4-(6-((6-acetyl-8-cyclopentyl-5-methyl-7-oxo-7,8-dihydropyrido[2,3-d]pyrimidin-2-yl)amino)pyridin-3-yl)piperazin-1-yl)sulfonyl)carbamate], the IC50 in assay [1] and in assay [2] was not above 0.2 µM each time. Also, in assay [3], the EC50 was more than 10 µM.

Consider `CC(=O)c1c(C)c2cnc(Nc3ccc(N4CCN(S(N)(=O)=O)C[C@@H]4C)cn3)nc2n(C2CCCC2)c1=O` [Compound A3, (S)-4-(6-((6-acetyl-8-cyclopentyl-5-methyl-7-oxo-7,8-dihydropyrido[2,3-d]-pyrimidin-2-yl)-amino)pyridin-3-yl)-3-methylpiperazine-1-sulfonamide], for which the IC50 in assay [1] and in assay [2] was not above 0.2 µM in each case. Besides, the EC50 in assay [3] was 1 to 10 µM.

In the case of `CC(=O)c1c(C)c2cnc(Nc3ccc(N4CCN(S(=O)(=O)NC(=O)OCCNC(=O)[C@@H](N)CO)CC4)cn3)nc2n(C2CCCC2)c1=O` [Compound A18, (S)-2-(2-Amino-3-hydroxypropanamido)ethyl ((4-(6-((6-acetyl-8-cyclopentyl-5-methyl-7-oxo-7,8-dihydropyrido[2,3-d]pyrimidin-2-yl)amino)pyridin-3-yl)piperazin-1-yl)-sulfonyl)carbamate], the IC50 in assay [1] and in assay [2] was not above 0.2 µM throughout. For the same compound, in assay [3], the EC50 was more than 10 µM.

With `CC(=O)NS(=O)(=O)N1CCN(c2ccc(Nc3ncc4c(C)c(C(C)=O)c(=O)n(C5CCCC5)c4n3)nc2)CC1` [Compound A34, N-((4-(6-((6-Acetyl-8-cyclopentyl-5-methyl-7-oxo-7,8-dihydropyrido[2,3-d]-pyrimidin-2-yl)amino)pyridin-3-yl)piperazin-1-yl)sulfonyl)acetamide], the IC50 in assay [1] and in assay [2] was not above 0.2 µM throughout. In addition, the EC50 in assay [3] is more than 10 µM.

For `CCOC(=O)NS(=O)(=O)N1CCN(c2ccc(Nc3ncc4c(C)c(C(C)=O)c(=O)n(C5CCCC5)c4n3)nc2)CC1` [Compound A25, Ethyl ((4-(6-((6-acetyl-8-cyclopentyl-5-methyl-7-oxo-7,8-dihydropyrido[2,3-d]-pyrimidin-2-yl)amino)pyridin-3-yl)piperazin-1-yl)sulfonyl)carbamate], the half-maximal inhibitory concentration (IC50) in assay [1] is 0.2 to 0.5 µM; in assay [2] it was not above 0.2 µM. Moreover, the EC50 in assay [3] lay within 1 to 10 µM.

With `CC(=O)c1c(C)c2cnc(Nc3ccc(N4CCN(S(=O)(=O)NC(=O)C(C)C)CC4)cn3)nc2n(C2CCCC2)c1=O` [Compound A36, N-((4-(6-((6-Acetyl-8-cyclopentyl-5-methyl-7-oxo-7,8-dihydropyrido[2,3-d]-pyrimidin-2-yl)amino)pyridin-3-yl)piperazin-1-yl)sulfonyl)isobutyramide], the results for the IC50 in assay [1] and in assay [2] were not above 0.2 µM and 0.2 to 0.5 µM, respectively. Moreover, the EC50 in assay [3] is 1 to 10 µM.

On to `CC(=O)OCCOC(=O)NS(=O)(=O)N1CCN(c2ccc(Nc3ncc4c(C)c(C(C)=O)c(=O)n(C5CCCC5)c4n3)nc2)CC1` [Compound A9, 2-((((4-(6-((6-Acetyl-8-cyclopentyl-5-methyl-7-oxo-7,8-dihydropyrido[2,3-d]-pyrimidin-2-yl)amino)pyridin-3-yl)piperazin-1-yl)sulfonyl)carbamoyl)oxy)ethyl acetate], for which the IC50 in assay [1] and in assay [2] was not above 0.2 µM in each case. Also, the half-maximal effective concentration (EC50) in assay [3] fell in the range of 1 to 10 µM.

For the compound `COCCNS(=O)(=O)N1CCN(c2ccc(Nc3ncc4c(C)c(C(C)=O)c(=O)n(C5CCCC5)c4n3)nc2)CC1` [Compound A43, 4-(6-((6-Acetyl-8-cyclopentyl-5-methyl-7-oxo-7,8-dihydropyrido[2,3-d]-pyrimidin-2-yl)amino)pyridin-3-yl)-N-(2-methoxyethyl)piperazine-1-sulfonamide], the IC50 in assay [1] and in assay [2] was not above 0.2 µM each time. Besides, the EC50 in assay [3] lay in the range of 1 to 10 µM.

As to `CC(=O)c1c(C)c2cnc(Nc3ccc(N4CCN(S(=O)(=O)NC(=O)OCCNC(=O)[C@@H](N)C(C)C)CC4)cn3)nc2n(C2CCCC2)c1=O` [Compound A14, (S)-2-(2-Amino-3-methylbutanamido)ethyl ((4-(6-((6-acetyl-8-cyclopentyl-5-methyl-7-oxo-7,8-dihydropyrido[2,3-d]pyrimidin-2-yl)amino)pyridin-3-yl)piperazin-1-yl)sulfonyl)carbamate], the IC50 in assay [1] and in assay [2] was not above 0.2 µM in each case. For the same compound, the EC50 in assay [3] was more than 10 µM.

As for `COC(=O)NS(=O)(=O)N1CCN(c2ccc(Nc3ncc4c(C)c(C(C)=O)c(=O)n(C5CCCC5)c4n3)nc2)CC1` [Compound A26, Methyl ((4-(6-((6-acetyl-8-cyclopentyl-5-methyl-7-oxo-7,8-dihydropyrido[2,3-d]-pyrimidin-2-yl)amino)pyridin-3-yl)piperazin-1-yl)sulfonyl)carbamate], the IC50 in assay [1] and in assay [2] was not above 0.2 µM in each case. The EC50 in assay [3] lay within 1 to 10 µM.

Regarding `CC(=O)c1c(C)c2cnc(Nc3ccc(N4CCN(S(=O)(=O)NC(=O)C5CCC5)CC4)cn3)nc2n(C2CCCC2)c1=O` [Compound A41, N-((4-(6-((6-Acetyl-8-cyclopentyl-5-methyl-7-oxo-7,8-dihydropyrido[2,3-d]-pyrimidin-2-yl)amino)pyridin-3-yl)piperazin-1-yl)sulfonyl)cyclobutanecarboxamide], the IC50 in assay [1] and in assay [2] was 0.2 to 0.5 µM each time. In addition, in assay [3], the EC50 lay in the range of 1 to 10 µM.

Turning to `CC(=O)c1c(C)c2cnc(Nc3ccc(N4CCN(S(=O)(=O)NC(=O)OC(C)C)CC4)cn3)nc2n(C2CCCC2)c1=O` [Compound A27, Isopropyl ((4-(6-((6-acetyl-8-cyclopentyl-5-methyl-7-oxo-7,8-dihydropyrido[2,3-d]pyrimidin-2-yl)amino)pyridin-3-yl)piperazin-1-yl)sulfonyl)carbamate], the IC50 in assay [1] is not above 0.2 µM; in assay [2], 0.2 to 0.5 µM. The EC50 in assay [3] was in the range of 1 to 10 µM.

As for `COCCOC(=O)NS(=O)(=O)N1CCN(c2ccc(Nc3ncc4c(C)c(C(C)=O)c(=O)n(C5CCCC5)c4n3)nc2)CC1` [Compound A8, 2-Methoxyethyl ((4-(6-((6-acetyl-8-cyclopentyl-5-methyl-7-oxo-7,8-dihydropyrido[2,3-d]pyrimidin-2-yl)amino)pyridin-3-yl)piperazin-1-yl)sulfonyl)carbamate], the IC50 in assay [1] is 0.2 to 0.5 µM; in assay [2], not above 0.2 µM. For the same compound, in assay [3], the EC50 is more than 10 µM.

`CCNS(=O)(=O)N1CCN(c2ccc(Nc3ncc4c(C)c(C(C)=O)c(=O)n(C5CCCC5)c4n3)nc2)CC1` [Compound A47, 4-(6-((6-Acetyl-8-cyclopentyl-5-methyl-7-oxo-7,8-dihydropyrido[2,3-d]-pyrimidin-2-yl)amino)pyridin-3-yl)-N-ethylpiperazine-1-sulfonamide]: the IC50 in assay [1] and in assay [2] was not above 0.2 µM throughout. In addition, in assay [3], the EC50 fell in the range of 1 to 10 µM.

Consider `CC(=O)c1c(C)c2cnc(Nc3ccc(N4CCN(S(=O)(=O)NC(=O)OC5CCC5)CC4)cn3)nc2n(C2CCCC2)c1=O` [Compound A23, Cyclobutyl ((4-(6-((6-acetyl-8-cyclopentyl-5-methyl-7-oxo-7,8-dihydropyrido[2,3-d]pyrimidin-2-yl)amino)pyridin-3-yl)piperazin-1-yl)sulfonyl)carbamate], for which the IC50 was more than 0.5 µM in assay [1] and not above 0.2 µM in assay [2]. Further, in assay [3], the concentration for a half-maximal effect (EC50) was 1 to 10 µM.
